The values below are quoted from earlier work in patent US20060177524A1, “Ocular irrigating solution” (University of Bristol, priority 1998, published 2006).

The test system of series [1] is endothelial Na^+K^+ ATPase. As to conditions: Geroski et al 1982-83, human and rabbit corneas.
For series [2] the following is noted: at 25° C.

Take `O=S(=O)(O)CCN1CCN(CCO)CC1` [HEPES, N-2-[hydroxyethyl]piperazine-N′-[2-ethanesulfonic acid]]: the “Toxicity to endothelial Na^+K^+ ATPase” value in series [1] is on record as “toxic”.
Usually pKa stands for the pH at which an ionisable group is half protonated. For `O=S(=O)(O)CCCN1CCN(CCO)CC1` [EPPS, N-[2-hydroxyethyl]-piperazine-N′-[3-propanesulfonic acid]], in series [2], the pKa was 8.0.
